Test results taken from patent US7238725B2, “Tricyclic compounds useful for the treatment of inflammatory and allergic disorders: process for their preparation and pharmaceutical compositions containing them” (Glenmark Pharmaceuticals Ltd., priority 2002, dated 2007).
Read-outs that look alike come from different tables or passages of the source.

Experiments:
[1] = target: PDE 6 (cGP-specific, photoreceptor); assay: Activity against other Phosphodiesterase enzymes: PDE 6; assay type: biochemical
Experimental: (§1) Additionally, activity of the compounds were tested against other Phosphodiesterase enzymes, namely, PDE 1 (Ca^2+/calmodulin-dependent), PDE 2 (cGP-stimulated), PDE 3 (cGP-inhibited), PDE 5 (cGP-specific) and PDE 6 (cGP-specific, photoreceptor).
(§2) Results were expressed as percent inhibition (IC50) in nM concentrations. The IC50 values were determined from the concentration curves by nonlinear regression analysis.

PDE4 = assay: Cell Based Assay for PDE4 Inhibition: cAMP elevation in whole U937 cells; conditions: 1 μM PGE1, normalized over PGE1
Experimental: Cell Based Assay for PDE4 Inhibition:
cAMP elevation studies were conducted in whole U937 cells. U937 cells (ATCC) were grown in RPMI medium containing 10% FBS, 1% pen-strep solution, 1% L-glutamine for 48 hrs. On the day of assay, the cells were washed twice with plain RPM1 medium by centrifuging at 800 rpm for 5 mins. Cells were resuspended in plain RPM1 medium followed by cell number and viability assessment using a trypan blue stain. Cells (0.15-0.2 mio cells per well) were seeded in a 96 well microtitre plate and incubated with various drugs/DMSO vehicle at 37° C. for 15 min. cAMP generation was started by addition of 1 μM PGE1 for 15 mins. The incubation was terminated by addition of cell lysis buffer from cAMP estimation kit. Lysate was used for cAMP quantitatin by chemiluminescence method (DiscoveRX kits). cAMP values were normalized over PGE1. EC50 values were calculated from dose response curves by nonlinear regression analysis using PRISM software.

PDE 3 (cGP-inhibited) = assay: Activity against other Phosphodiesterase enzymes: PDE 3; assay type: biochemical; conditions: read-out: IC50 values PDE3
Experimental: as §1, §2

PDE4 enzyme = assay: Inhibition of Phosphodiesterase Enzymes (PDE4), [3H]cAMP hydrolysis; assay type: biochemical
Experimental: Inhibition of Phosphodiesterase Enzymes (PDE4)
In this assay, PDE4 enzyme converts [^3H] cAMP to the corresponding [^3H] 5′-AMP in proportion to the amount of PDE4 present The [^3H] 5′-AMP then was quantitatively converted to free [^3H] adenosine and phosphate by the action of snake venom 5′-nucleotidase.
The assay was performed with modification of the method of Thompson and Appleman (Biochemistry; 1971; 10; 311-316) and Schwartz and Passoneau (Proc. Natl. Acad. Sci. U.S.A. 1974; 71; 3844-3848), both references incorporated herein by reference in their entirety, at 34° C. In a 200 ul total reaction mixture, the reaction mixture contained 12.5 mM of Tris, 5 mM MgCl2, 1 μM cAMP (cold) and ^3H cAMP (0.1 uCi), (Amersham). […] Drug samples were then added in the reaction mixture (25 μl/tube). The assay was initiated by addition of enzyme mix (75 μl) and the mixture was incubated for 20 minutes at 34° C. The reaction was stopped by boiling the tubes for 2 mins at 100° C. in a water bath. After cooling on ice for 5 minutes and addition of 50 ug/reaction of 5′-nucleotidase snake venom from Crotalus atrox incubation was carried out again for 20 min. at 34° C. The unreacted substrate was separated from (^3H) Adenosine by addition of Dowex AG 1-X8 (Biorad Lab), (400 ul) which was prequilibrated (1:1:1) in water and ethanol. Reaction mixture was then thoroughly mixed, placed on ice for 15 minutes, vortexed and centrifuged at 14,000 r.p.m. for 2 mins. After centrifugation, a sample of the supernatant was taken and added in 24 well optiplates containing Scintillant (1 ml) and mixed well. The samples in the plates were then determined for radioactivity in a Top Counter and the PDE4 activity was estimated. PDE4 enzyme was present in quantities that yield <30% total hydrolysis of substrate (linear assay conditions).
as §2
The IC50 value for the compound examined was determined from concentration-response curves in which varying range of concentrations were considered as shown in table 1

[2] = target: PDE 1 (Ca2+/calmodulin-dependent); assay: Activity against other Phosphodiesterase enzymes: PDE 1; assay type: biochemical
Experimental: as §1, §2

PDE 2 (cGP-stimulated) = PDE 2 (cGP-stimulated) (Homo sapiens, UniProt O00408); assay: Activity against other Phosphodiesterase enzymes: PDE 2; assay type: biochemical; conditions: read-out: IC50 values PDE2
PDE 2 (cGP-stimulated), sequence (O00408 whole entry): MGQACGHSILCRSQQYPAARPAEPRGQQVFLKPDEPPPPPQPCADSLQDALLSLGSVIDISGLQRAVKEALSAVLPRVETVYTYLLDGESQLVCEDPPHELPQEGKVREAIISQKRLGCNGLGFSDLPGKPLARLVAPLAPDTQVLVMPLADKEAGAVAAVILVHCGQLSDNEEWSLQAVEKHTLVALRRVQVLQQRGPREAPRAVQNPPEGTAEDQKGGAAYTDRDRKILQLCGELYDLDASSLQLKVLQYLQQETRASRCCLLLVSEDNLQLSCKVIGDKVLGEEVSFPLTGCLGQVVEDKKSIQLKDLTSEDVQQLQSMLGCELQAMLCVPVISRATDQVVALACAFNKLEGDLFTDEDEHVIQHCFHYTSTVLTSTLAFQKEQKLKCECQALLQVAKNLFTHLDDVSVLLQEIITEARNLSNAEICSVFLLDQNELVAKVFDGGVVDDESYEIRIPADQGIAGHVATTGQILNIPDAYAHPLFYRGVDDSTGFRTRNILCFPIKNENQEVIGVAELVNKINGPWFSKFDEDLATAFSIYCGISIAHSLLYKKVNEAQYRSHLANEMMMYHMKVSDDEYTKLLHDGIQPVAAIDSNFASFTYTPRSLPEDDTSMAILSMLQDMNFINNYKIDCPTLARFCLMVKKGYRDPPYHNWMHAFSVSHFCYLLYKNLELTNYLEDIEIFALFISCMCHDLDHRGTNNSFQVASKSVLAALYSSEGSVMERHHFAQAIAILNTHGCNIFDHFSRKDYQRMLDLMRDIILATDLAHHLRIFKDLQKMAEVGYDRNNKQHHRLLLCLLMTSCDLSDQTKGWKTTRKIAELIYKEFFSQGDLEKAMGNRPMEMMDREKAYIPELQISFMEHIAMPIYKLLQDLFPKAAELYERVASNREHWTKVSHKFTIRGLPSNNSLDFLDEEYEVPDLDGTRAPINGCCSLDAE
Experimental: as §1, §2

- % inhibition at 100 µM [1]: 36%
- IC50 (PDE 3 (cGP-inhibited)): 61800 nM
- IC50 (PDE4 enzyme; PDE4 enzyme, 1 μM cAMP and 3H cAMP, 34° C., read-out: IC50): 0.8 nM
- IC50 (PDE4 enzyme; Table 1, read-out: IC50 values PDE4): 0.8 nM
- % inhibition at 100 µM [2]: 44%
- melting point: 302 °C
- IC50 (PDE 2 (cGP-stimulated)): 69100 nM
SMILES: COc1ccc(C(=O)Nc2c(Cl)cncc2Cl)c2c1oc1ccccc12 [Example 1, N-(3,5-dichloropyrid-4-yl)-4-methoxy dibenzo[b,d]furan-1-carboxamide]
- EC50 (PDE4): 83.7 nM
